In patent publication US20230203044A1, “PYRAZOLO[1,5-D][1,2,4]TRIAZINE-5(4H)-ACETAMIDES AS INHIBITORS OF THE NLRP3 INFLAMMASOME” (JANSSEN PHARMACEUTICA NV, priority 2020, published 2023) one finds EC50 and IC50 data, which are given here for 24 molecules.

Usually EC50 stands for the concentration that produces a half-maximal response. Lower therefore signals an effect from little substance. For orientation: IC50 means the concentration at which inhibition is half-maximal.

The test system of one assay is TNF. Put plainly: PBMC assay: TNF cytokine levels in LPS-stimulated human PBMCs (MSD). Type of assay: cell-based. Particulars: 100 ng/ml LPS for 6 hrs, TNF in supernatant via MSD. In outline:
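Cryopreserved healthy-donor human PBMCs (7.5×10^4 cells/well, RPMI + 10% FBS) were preincubated with 1:3 serially diluted compounds for 30 min at 37 °C. They were then stimulated with 100 ng/ml LPS (final) for 6 h. Supernatant TNF was measured by MSD, and EC50 values were derived.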

The next assay relates to NLRP3 inflammasome. As to the kind of experiment: PBMC assay: IL-1β in LPS-stimulated human PBMCs (MSD). To be noted: human PBMCs, 100 ng/ml LPS for 6 hrs, IL-1β in supernatant via MSD, read-out: IL1β IC50. Type of assay: cell-based. The method in brief: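 Human PBMCs from healthy donors, Ficoll-isolated and cryopreserved, were plated at 7.5×10^4 cells/well in RPMI/10% FBS for 30 min at 37 °C. Cells were then stimulated with 100 ng/ml LPS (final) for 6 h. IL-1β and TNF in supernatants were quantified by MSD immunoassay.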

Each structure is given as a SMILES string.

In the assay on TNF, `Cc1nn(CC(=O)NC2(C(F)(F)F)CCOC2)c(=O)c2cc(C3CC3)nn12` (stereo not drawn) [Final Cpd 51] had an EC50 greater than 10 µM. Further, the IC50 in the assay on NLRP3 inflammasome is greater than 10000 nM.
In the same order, the values of `CCc1cc2c(=O)n(CC(=O)Nc3ccc4nncn4c3)nc(C(C)C)n2n1` [Final Cpd 146] are greater than 10 µM and 210 nM.
On to `CC(C)c1nn(CC(=O)Nc2ccc3nncn3c2)c(=O)c2cc(CC(F)(F)F)nn12` [Final Cpd 159], for which the EC50 with TNF was greater than 10 µM. Besides, the IC50 in the assay on NLRP3 inflammasome was determined as 2240 nM.
For `CC(C)c1nn(CC(=O)Nc2ccncn2)c(=O)c2cc(C(C)(C)C)nn12` [Final Cpd 70], in that order: greater than 10 µM and 620 nM.
In the same order, the values of `CC(C)c1nn(CC(=O)Nc2cccnc2)c(=O)c2cc(C3CC3)nn12` [Final Cpd 119] are greater than 10 µM and 520 nM.
In the same order, the values of `CC(C)c1nn(CC(=O)Nc2ccc3ncoc3c2)c(=O)c2cc(C3CC3)nn12` [Final Cpd 100] are greater than 10 µM and 310 nM.
`CC(C)c1nn(CC(=O)Nc2ccncn2)c(=O)c2cc(C(C)O)nn12` (stereo not drawn) [Final Cpd 185, 2-(2-(1-hydroxyethyl)-7-sopropyl-4-oxopyrazolo[1,5-d][1,2,4]triazin-5(4H)-yl)-N-(pyrimidin-4-yl)acetamide] registered an EC50 with TNF greater than 10 µM. For the same molecule, the IC50 with NLRP3 inflammasome was found to be 4110 nM.
On to `CC(C)c1cc2c(=O)n(CC(=O)N[C@H]3C[C@@](C)(O)C3)nc(C(C)O)n2n1` (stereo partly drawn) [Final Cpd 154], for which, in the assay on TNF, the EC50 is greater than 10 µM. Moreover, the IC50 in the assay with NLRP3 inflammasome is 3000 nM.
For `CC(C)c1nn(CC(=O)Nc2cncc(F)c2)c(=O)c2cc(C3CC3)nn12` [Final Cpd 112], in that order: greater than 10 µM and 880 nM.
For `CC(C)c1nn(CC(=O)Nc2ccc3cnnn3c2)c(=O)c2cc(C3CC3)nn12` [Final Cpd 128], in that order: greater than 10 µM and 2550 nM.
In the same order, the values of `COc1c(NC(=O)Cn2nc(C(C)C)n3nc(C4CC4)cc3c2=O)ccnc1C` [Final Cpd 102] are greater than 10 µM and 520 nM.
In the case of `CC(C)c1nn(CC(=O)Nc2ccncc2F)c(=O)c2cc(C3CC3)nn12` [Final Cpd 96], the EC50 in the assay with TNF is greater than 10 µM. For the same molecule, in the assay on NLRP3 inflammasome, the IC50 was determined as 240 nM.
With `CC(C)c1nn(CC(=O)Nc2ccc(C(F)F)nn2)c(=O)c2cc(C3CC3)nn12` [Final Cpd 174], the EC50 in the assay on TNF is greater than 10 µM. In addition, the IC50 with NLRP3 inflammasome was 6750 nM.
In turn, `Cc1nnc2n1CC(NC(=O)Cn1nc(C(C)C)n3nc(C4CC4)cc3c1=O)CC2` (stereo not drawn) [Final Cpd 84] came in with an EC50 in the assay on TNF greater than 10 µM. Moreover, in the assay on NLRP3 inflammasome, the IC50 worked out at 630 nM.
Molecule `CC(C)c1nn(CC(=O)Nc2ccncn2)c(=O)c2cc(N(C)C)nn12` [Final Cpd 22] gave an EC50 in the assay on TNF greater than 10 µM. For the same molecule, the IC50 with NLRP3 inflammasome worked out at 1350 nM.
`Cc1nn(CC(=O)NC2CCCC2O)c(=O)c2cc(C3CC3)nn12` (stereo not drawn) [Final Cpd 65]: the EC50 with TNF was greater than 10 µM. Also, the IC50 in the assay on NLRP3 inflammasome amounted to 4190 nM.
For `CC(C)c1nn(CC(=O)N[C@@H]2CCCN(CC(F)(F)F)C2)c(=O)c2cc(C3CC3)nn12` [Final Cpd 189, (R)-2-(2-cyclopropyl-7-isopropyl-4-oxopyrazolo[1,5-d][1,2,4]triazin-5(4H)-yl)-N-(1-(2,2,2-trifluoroethyl)piperidin-3-yl)acetamide], in that order: greater than 10 µM and 1160 nM.
On to `CC(C)c1nn(CC(=O)Nc2cnc3ccnn3c2)c(=O)c2cc(C3CC3)nn12` [Final Cpd 101], for which the EC50 in the assay on TNF is greater than 10 µM. Also, the IC50 in the assay on NLRP3 inflammasome amounted to 7750 nM.
In the same order, the values of `CCCc1cc2c(=O)n(CC(=O)Nc3ccncn3)nc(CC)n2n1` [Final Cpd 15] are greater than 10 µM and 2400 nM.
For `CC(C)c1nn(CC(=O)Nc2ccnnc2)c(=O)c2cc(C3CC3)nn12` [Final Cpd 32], in that order: greater than 10 µM and 150 nM.
In the same order, the values of `CC(C)c1nn(CC(=O)Nc2ccc(C(F)F)nc2)c(=O)c2cc(C3CC3)nn12` [Final Cpd 116] are greater than 10 µM and 1230 nM.
For the molecule `Cc1nn(CC(=O)N[C@@H]2COC[C@@H]2CC(C)C)c(=O)c2cc(C3CC3)nn12` [Final Cpd 55], in the assay on TNF, the EC50 was greater than 10 µM. Also, the IC50 in the assay on NLRP3 inflammasome is greater than 10000 nM.
Regarding `CC(C)c1nn(CC(=O)Nc2cc(C(F)(F)F)ncn2)c(=O)c2cc(C3CC3)nn12` [Final Cpd 83], the EC50 in the assay on TNF was greater than 10 µM. Moreover, the IC50 in the assay on NLRP3 inflammasome is greater than 10000 nM.
In the same order, the values of `CC(C)c1nn(CC(=O)Nc2ccc3nnc(C(F)(F)F)n3n2)c(=O)c2cc(C3CC3)nn12` [Final Cpd 168] are greater than 10 µM and 840 nM.
